Series [1] addresses T1, human calcitonin receptor (hCTR) (Homo sapiens, UniProt P30988).
T1 construct: expressed in transfected cells
T1 sequence (P30988 25-474): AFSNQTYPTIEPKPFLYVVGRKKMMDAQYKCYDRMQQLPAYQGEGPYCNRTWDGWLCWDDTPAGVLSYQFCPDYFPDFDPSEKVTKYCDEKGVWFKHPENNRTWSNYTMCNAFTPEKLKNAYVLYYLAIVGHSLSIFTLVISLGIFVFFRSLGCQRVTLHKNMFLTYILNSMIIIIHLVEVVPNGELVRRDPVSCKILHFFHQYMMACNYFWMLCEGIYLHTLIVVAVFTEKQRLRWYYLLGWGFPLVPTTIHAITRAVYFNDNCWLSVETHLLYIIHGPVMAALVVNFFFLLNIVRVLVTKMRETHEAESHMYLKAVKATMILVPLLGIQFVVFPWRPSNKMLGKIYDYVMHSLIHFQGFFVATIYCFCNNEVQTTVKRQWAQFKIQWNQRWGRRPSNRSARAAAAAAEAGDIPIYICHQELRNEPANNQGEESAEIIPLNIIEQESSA
Put plainly: cAMP production in 1321N1 cells with stable recombinant expression of human calcitonin receptor (hCTR). The note with it: cAMP, 1321N1 cells, assay buffer with 0.1% BSA; read-out: EC50 (pM) hCTR. The class given is cell-based. The method in brief:
(§1)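 Thawed cells in HBSS/0.1% BSA/25 mM HEPES pH 7.4 with 0.5 mM IBMX were incubated with peptides 30 min at room temperature; cAMP read by HTRF. EC50 from 4-parameter fit of % activation relative to maximal amylin or calcitonin effect.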
For orientation: cAMP levels reflect the balance of adenylyl cyclase and phosphodiesterase activity.

Series [2] is described as follows: Pharmacokinetic determination via IV and SC administration in Sprague Dawley rats. The note with it: male, rat, plasma, 20 nmol/kg.
The target in series [3] is T2, human amylin receptor (calcitonin receptor co-expressed with receptor activity modifying protein, RAMP3) (hAMYR3) (Homo sapiens, UniProt O60896+P30988).
T2 construct: expressed in transfected cells
T2 sequence (P30988 25-474): T1 sequence (P30988 25-474)
T2 sequence (O60896 24-148 partner): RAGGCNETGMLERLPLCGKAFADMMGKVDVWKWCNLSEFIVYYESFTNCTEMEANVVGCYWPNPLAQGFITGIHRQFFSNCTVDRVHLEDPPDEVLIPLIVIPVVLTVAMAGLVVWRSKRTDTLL
Put plainly: cAMP production in 1321N1 cells with stable recombinant expression of human amylin receptor (hAMYR3). The class given is cell-based. The note with it: for Ratio (selectivity hAMYR vs hCTR, ratio of EC50 values at the two receptors): EC50 hCTR / EC50 hAMYR3; for EC50: cAMP, 1321N1 cells, assay buffer with 0.1% BSA, read-out: EC50 (pM) hAMYR3. The method in brief: as §1

Series [4] in a line: Thioflavin T fibrillation assay. The class given is physicochemical. The conditions noted are these: ThT fibrillation assay; peptide 1 mg/mL in 25 mM sodium acetate buffer pH 4.0; 6 days at 37 °C with shaking; >144 h = no increase. Summed up: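 Peptides at 1 mg/mL in 25 mM sodium acetate pH 4.0 with ThT (from 0.25 mM stock), incubated 6 days at 37 °C with intermittent orbital shaking at 500–750 rpm. Fluorescence (ex 444/em 480 nm) read every 30 min; value is average time to a rise in baseline-corrected signal.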

Numbered stars: 1 amine (or outer) side, 2 acyl side, 3 side chain; on linkers, the order of the positions; unused ones are H or OH. Bridge positions count the residues as written; N and C are the ends. Square brackets hold non-standard residues; d marks the D form. Side chains are listed from the residue outwards. Peptide text beside a SMILES is read from it. * marks the point of attachment. C18 diacid = O=C(O)CCCCCCCCCCCCCCCCC(=O)*; γGlu = O=C(O)[C@H](CCC(=O)[*:2])N[*:1]; αMeF = C[C@](N)(Cc1ccccc1)C(=O)O; Aib = CC(C)(N)C(=O)O

Take `CC[C@H](C)[C@H](NC(=O)[C@@H]1CCCN1C(=O)CNC(=O)[C@](C)(Cc1ccccc1)NC(=O)[C@H](CC(N)=O)NC(=O)[C@H](CC(N)=O)NC(=O)[C@H](CO)NC(=O)[C@H](CO)NC(=O)[C@H](Cc1c[nH]cn1)NC(=O)[C@H](CCCNC(=N)N)NC(=O)[C@H](CC(C)C)NC(=O)[C@H](Cc1ccccc1)NC(=O)[C@H](CC(N)=O)NC(=O)[C@H](C)NC(=O)[C@H](CC(C)C)NC(=O)[C@H](CCCNC(=N)N)NC(=O)[C@H](CCC(N)=O)NC(=O)[C@@H](NC(=O)[C@H](C)NC(=O)[C@@H]1CSSC[C@H](NC(=O)[C@@H](N)CCCCNC(=O)CC[C@H](NC(=O)CCCCCCCCCCCCCCCCC(=O)O)C(=O)O)C(=O)N[C@@H](CC(N)=O)C(=O)N[C@@H]([C@@H](C)O)C(=O)N[C@@H](C)C(=O)N[C@@H]([C@@H](C)O)C(=O)N1)[C@@H](C)O)C(=O)N[C@@H](CC(C)C)C(=O)N1CCC[C@H]1C(=O)N1CCC[C@H]1C(=O)N[C@H](C(=O)N[C@@H](CC(N)=O)C(=O)N[C@H](C(=O)NCC(=O)N[C@@H](CO)C(=O)N[C@@H](CC(N)=O)C(=O)N[C@H](C(=O)N[C@@H](Cc1ccc(O)cc1)C(N)=O)[C@@H](C)O)C(C)C)[C@@H](C)O` [Peptide 19, K(γE-C18diacid)[CNTATC]ATQRLANFLRHSSNN(αMePhe)GPILPPTNVGSNTY-amide] (H-K([γGlu-C18 diacid])CNTATCATQRLANFLRHSSNN[αMeF]GPILPPTNVGSNTY-NH2; disulfide 2-7; N-terminus assumed): the concentration giving a half-maximal response (EC50) came to 4040 pM in series [1] and 278 pM in series [3]. The half-life is 6.6 h in series [2] (iv) and 9.3 h in series [2] (sc). Further, the “Ratio (selectivity hAMYR vs hCTR, ratio of EC50 values at the two receptors)” value in series [3] came to 15. Further, the “Time taken to detect increase in fluorescence intensity” value in series [4] is greater than 144 h.

Turning to `CC[C@H](C)[C@H](NC(=O)[C@@H]1CCCN1C(=O)CNC(=O)[C@H](Cc1ccccc1)NC(=O)[C@H](CC(N)=O)NC(=O)C(C)(C)NC(=O)[C@H](CO)NC(=O)[C@H](CO)NC(=O)[C@H](Cc1c[nH]cn1)NC(=O)C(C)(C)NC(=O)[C@H](CC(C)C)NC(=O)[C@H](Cc1ccccc1)NC(=O)[C@H](CC(N)=O)NC(=O)[C@H](C)NC(=O)[C@H](CC(C)C)NC(=O)[C@H](CCCNC(=N)N)NC(=O)[C@H](CCC(N)=O)NC(=O)[C@@H](NC(=O)[C@H](C)NC(=O)[C@@H]1CSSC[C@H](NC(=O)[C@H](CCCCN)NC(=O)[C@@H](N)CCCCNC(=O)CC[C@H](NC(=O)CCCCCCCCCCCCCCCCC(=O)O)C(=O)O)C(=O)N[C@@H](CC(N)=O)C(=O)N[C@@H]([C@@H](C)O)C(=O)N[C@@H](C)C(=O)N[C@@H]([C@@H](C)O)C(=O)N1)[C@@H](C)O)C(=O)N[C@@H](CC(C)C)C(=O)N1CCC[C@H]1C(=O)N1CCC[C@H]1C(=O)N[C@H](C(=O)N[C@@H](CC(N)=O)C(=O)N[C@H](C(=O)NCC(=O)N[C@@H](CO)C(=O)N[C@@H](CC(N)=O)C(=O)N[C@H](C(=O)N[C@@H](Cc1ccc(O)cc1)C(N)=O)[C@@H](C)O)C(C)C)[C@@H](C)O` [Peptide 36, K(γE-C18diacid)K[CNTATC]ATQRLANFL(Aib)HSS(Aib)NFGPILPPTNVGSNTY-amide] (H-K([γGlu-C18 diacid])KCNTATCATQRLANFL[Aib]HSS[Aib]NFGPILPPTNVGSNTY-NH2; disulfide 3-8; N-terminus assumed), the EC50 was determined as 6390 pM in series [1] and 331 pM in series [3]. Further, the half-life in series [2] (iv) was 7.2 h; in series [2] (sc), 11.6 h. The “Ratio (selectivity hAMYR vs hCTR, ratio of EC50 values at the two receptors)” value in series [3] is reported as 19.

For `CC[C@H](C)[C@H](NC(=O)[C@@H]1CCCN1C(=O)CNC(=O)[C@H](Cc1ccccc1)NC(=O)[C@H](CC(N)=O)NC(=O)C(C)(C)NC(=O)[C@H](CO)NC(=O)[C@H](CO)NC(=O)[C@H](Cc1c[nH]cn1)NC(=O)[C@H](CCCNC(=N)N)NC(=O)[C@H](CC(C)C)NC(=O)[C@H](Cc1ccccc1)NC(=O)[C@H](CC(N)=O)NC(=O)[C@H](C)NC(=O)[C@H](CC(C)C)NC(=O)[C@H](CCCNC(=N)N)NC(=O)[C@H](CCC(N)=O)NC(=O)[C@@H](NC(=O)[C@H](C)NC(=O)[C@@H]1CSSC[C@H](NC(=O)[C@H](CCCCN)NC(=O)[C@@H](N)CCCCNC(=O)CC[C@H](NC(=O)CCCCCCCCCCCCCCCCC(=O)O)C(=O)O)C(=O)N[C@@H](CC(N)=O)C(=O)N[C@@H]([C@@H](C)O)C(=O)N[C@@H](C)C(=O)N[C@@H]([C@@H](C)O)C(=O)N1)[C@@H](C)O)C(=O)N[C@@H](CC(C)C)C(=O)N1CCC[C@H]1C(=O)N1CCC[C@H]1C(=O)N[C@H](C(=O)N[C@@H](CC(N)=O)C(=O)N[C@H](C(=O)NCC(=O)N[C@@H](CO)C(=O)N[C@@H](CC(N)=O)C(=O)N[C@H](C(=O)N[C@@H](Cc1ccc(O)cc1)C(N)=O)[C@@H](C)O)C(C)C)[C@@H](C)O` [Peptide 65, K(γE-C18diacid)K[CNTATC]ATQRLANFLRHSS(Aib)NFGPILPPTNVGSNTY-amide] (H-K([γGlu-C18 diacid])KCNTATCATQRLANFLRHSS[Aib]NFGPILPPTNVGSNTY-NH2; disulfide 3-8), the EC50 was found to be 6400 pM in series [1] and 207 pM in series [3]. Moreover, the results for the half-life in series [2] (iv) and in series [2] (sc) were 6 h and 9.3 h, respectively. Moreover, the “Ratio (selectivity hAMYR vs hCTR, ratio of EC50 values at the two receptors)” value in series [3] came to 31.

As to `CC[C@H](C)[C@H](NC(=O)[C@@H]1CCCN1C(=O)CNC(=O)[C@H](Cc1ccccc1)NC(=O)[C@H](CC(N)=O)NC(=O)[C@H](CC(N)=O)NC(=O)[C@H](CO)NC(=O)[C@H](CO)NC(=O)[C@H](Cc1c[nH]cn1)NC(=O)C(C)(C)NC(=O)[C@H](CC(C)C)NC(=O)[C@H](Cc1ccccc1)NC(=O)[C@H](CC(N)=O)NC(=O)[C@H](C)NC(=O)[C@H](CC(C)C)NC(=O)[C@H](CCCNC(=N)N)NC(=O)[C@H](CCC(N)=O)NC(=O)[C@@H](NC(=O)[C@H](C)NC(=O)[C@@H]1CSSC[C@H](NC(=O)[C@@H](N)CCCCNC(=O)CC[C@H](NC(=O)CCCCCCCCCCCCCCCCC(=O)O)C(=O)O)C(=O)N[C@@H](CC(N)=O)C(=O)N[C@@H]([C@@H](C)O)C(=O)N[C@@H](C)C(=O)N[C@@H]([C@@H](C)O)C(=O)N1)[C@@H](C)O)C(=O)N[C@@H](CC(C)C)C(=O)N1CCC[C@H]1C(=O)N1CCC[C@H]1C(=O)N[C@H](C(=O)N[C@@H](CCCNC(=N)N)C(=O)N[C@H](C(=O)NCC(=O)N[C@@H](CO)C(=O)N[C@@H](CC(N)=O)C(=O)N[C@H](C(=O)N[C@@H](Cc1ccc(O)cc1)C(N)=O)[C@@H](C)O)C(C)C)[C@@H](C)O` [Peptide 155] (H-K([γGlu-C18 diacid])CNTATCATQRLANFL[Aib]HSSNNFGPILPPTRVGSNTY-NH2; disulfide 2-7; N-terminus assumed), the figures for the EC50 in series [1] and in series [3] were 3930 pM and 329 pM, respectively. The half-life in series [2] (iv) is 7.7 h; in series [2] (sc) it was 8.9 h. In series [3], the “Ratio (selectivity hAMYR vs hCTR, ratio of EC50 values at the two receptors)” value was found to be 11.9.

Broadly, the EC50 is the concentration at which the effect is half-maximal. The term half-life denotes the time in which the quantity being followed falls by half.

Values taken from US20240067693A1, “POLYPEPTIDES AND USES THEREOF” (MEDIMMUNE LIMITED, priority 2020, published 2024).
